The subject of data set [1] is HepG2. The data set is described as follows: Cytotoxicity against HepG2 cells. The format is functional. To be noted: Homo sapiens.
The nature of data set [2]: Inhibition of CRE-mediated gene transcription in HepG2 cells by luciferase reporter gene assay. It counts as cell-based. To be noted: Homo sapiens.
In data set [3] the test system is HepG2. The data set is described as follows: Down regulation of cyclin D1 expression in HepG2 cells. To be noted: Homo sapiens. The format is functional, cell-based.
Data set [4] is described as follows: Inhibition of NF-kappaB-mediated gene transcription in HepG2 cells by luciferase reporter gene assay. To be noted: Homo sapiens. The format is cell-based. (A reporter such as luciferase makes a cellular process visible.)
The subject of data set [5] is HepG2. The data set is described as follows: Antitumor activity against HepG2 cells xenografted nude mouse at 9 mg/kg, ip twice per day on every third day for four cycles. It counts as functional, organism-based. To be noted: Homo sapiens. Also noted: dose 9 mg/kg.
In a further data set the test system is PANC-1. The experiment in a line: Cytotoxicity against PANC1 cells. The format is functional. To be noted: Homo sapiens.
The test system of data set [6] is Mus musculus. The experiment in a line: Reduction of body weight in HepG2 xenografted nude mouse at 9 mg/kg, ip after 10 days. To be noted: in vivo, 240 h. Also noted: dose 9 mg/kg, route intraperitoneal; scale not given: the % may be the effect or the level left. The format is ADME, organism-based.
In data set [7] the test system is Mus musculus. The experiment in a line: Reduction of body weight in HepG2 xenografted nude mouse at 9 mg/kg, ip after 9 days. The format is ADME, organism-based. On the set-up: dose 9 mg/kg, route intraperitoneal; scale not given: the % may be the effect or the level left. To be noted: in vivo, 216 h.

Calls of active or inactive are those of the source. No cut-off for these calls is given here.

With `COc1ccc2c3c(c4cc(OC)c(O)cc4c2c1)CN1CCC[C@@H]1C3`, the GI50 with HepG2 [1] was 13 nM; in the data set with PANC-1, 11 nM. For the same compound, the IC50 in data set [2] amounted to 135 nM; in data set [4], 11 nM. Further, in the data set on HepG2 [3], the Activity entry is “Dose-dependent effect”. In the data set on HepG2 [5], the outcome was inactive.

Turning to `COc1cc2c(cc1OC)-c1cc(OC)c(OC)cc1C1CN3CCC[C@H]3C=C21` (some centres not stated), the IC50 in data set [2] and in data set [4] was greater than 300 nM in each case.

The compound `COc1cc2c3c(c4cc(OC)c(OC)cc4c2cc1OC)[C@H](O)[C@@H]1CCCN1C3` showed an IC50 in data set [2] of 1070 nM. For the same compound, the Activity in the data set with Mus musculus [6] and with Mus musculus [7] was 15% in each case.

With `COc1cc2c3c(c4cc(OC)c(OC)cc4c2cc1OC)[C@@H](O)[C@@H]1CCCN1C3`, the half-inhibitory concentration (IC50) was greater than 300 nM in data set [2] and 315 nM in data set [4].

`COc1cc2c3c(c4cc(OC)c(OC)cc4c2cc1O)CN1CCC[C@H]1[C@H]3O` came in with a GI50 in the data set with HepG2 [1] greater than 600 nM. Moreover, the IC50 in data set [2] was greater than 300 nM; in data set [4], 322 nM.

Take `COc1ccc2c3c(c4cc(OC)c(O)cc4c2c1)C[N+]1([O-])CCC[C@H]1[C@H]3O` (some centres not stated) [TYLOPHORIDICINE C]: the GI50 came out at 98 nM in the data set with HepG2 [1] and 67 nM in the data set with PANC-1. Further, the figures for the IC50 in data set [2] and in data set [4] were greater than 1000 nM and 600 nM, respectively. Further, the Activity entry in the data set with HepG2 [3] is “Dose-dependent effect”.

On to `COc1cc2c3c(c4ccc(O)cc4c2cc1OC)[C@H](O)[C@@H]1CCCN1C3` [TYLOPHORIDICINE E], for which the GI50 in the data set on HepG2 [1] and in the data set with PANC-1 was greater than 5000 nM throughout. Besides, the IC50 in data set [2] and in data set [4] was greater than 1000 nM throughout. Moreover, the Activity entry in the data set with HepG2 [3] is “Dose-dependent effect”.

As to `COc1ccc2c3c(c4cc(OC)c(OC)cc4c2c1)C[N+]1([O-])CCC[C@H]1[C@@H]3O` (some centres not stated) [TYLOPHORIDICINE F], the 50% growth inhibitory concentration (GI50) in the data set with HepG2 [1] is 71 nM; in the data set on PANC-1, 63 nM. Moreover, the IC50 was greater than 1000 nM in data set [2] and 367 nM in data set [4]. Further, in the data set with HepG2 [3], the Activity entry was “Dose-dependent effect”.

With `COc1ccc2c3c(c4cc(OC)c(O)cc4c2c1)CN1CCC[C@H]1[C@H]3O` [TYLOPHORINIDINE], the results for the GI50 with HepG2 [1] and with PANC-1 were 11 nM and 7 nM, respectively. Besides, the figures for the 50% inhibitory concentration (IC50) in data set [2] and in data set [4] were 95 nM and 10 nM, respectively. The Activity result in the data set with HepG2 [3] is “Dose-dependent effect”. Besides, the result in the data set with HepG2 [5] was Active.

As to `COc1ccc2c3c(c4cc(OC)c(OC)cc4c2c1)CN1CCC[C@H]1[C@@H]3O` [TYLOPHORININE], the GI50 with HepG2 [1] stood at 20 nM; in the data set on PANC-1, 11 nM. The results for the IC50 in data set [2] and in data set [4] were 80 nM and 12 nM, respectively. The Activity result in the data set with HepG2 [3] was “Dose-dependent effect”.

By GI50 is commonly meant the concentration that inhibits growth by half. In general, IC50 refers to the midpoint of a concentration-inhibition curve.

Source of the values: ChEMBL document CHEMBL1140007, “Structure-activity studies of phenanthroindolizidine alkaloids as potential antitumor agents” (Bioorg Med Chem Lett, 2007).
